Results from patent publication US6696497B2, “Fungicidal mixtures” (BASF Aktiengesellschaft, priority 2000, dated 2004).

What was measured:
[1] = system: Plasmopara viticola on grapes; assay: Fungicidal efficacy (3 day residual) on grapes, greenhouse; format: in vivo; conditions: single compound
Protocol: (§1) The trials are carried out under greenhouse conditions in residual or curative applications. The fungicides are applied in single treatments, or in a combination comprising a benzophenone of formula I and a compound of formula II. The compounds are applied in form of an aqueous spray mix obtained from concentrated formulation or the technical material.
(§2) Grape plants of variety “Mueller-Thurgau” are grown in the greenhouse from small stake cuttings. When about 40 cm high, the number of leaves is reduced to 4 fully expanded leaves per plant.
(§3) The compounds are dissolved in acetone with 0.5% TRITON™ X155 (an alkylaryl polyether alcohol), and sprayed in concentrations and combinations as given in tables I and II with a three nozzle overhead fungicide sprayer to near run-off. Plants are then allowed to air-dry.
(§4) Inoculation precedes treatment in the case of curative evaluations and follows treatment in case of residual evaluations.
(§5) For inoculation an aqueous spore suspension of the pathogen is applied to the plant and the plants are kept 1-2 days in a moist infection chamber before being returned to the greenhouse where they are maintained by bottom watering.
(§6) Disease on the foliage as percent leaf area with disease symptoms/signs is evaluated about 7 days after inoculation. [formula]
(§7) Assessments of the diseases took place at the indicated day after the application of the compounds. Percent infected leaf area infected was evaluated. The efficacy of the compounds/compounds mixtures to control the diseases was calculated by using the formula given above.
(§8) Synergy was calculated using the % disease control values of specific treatments for the two COLBY formula given hereinabove.
Fungicidal efficacy of the mixture of BP-4+iprovalicarb (3 day residual) against Plasmopara viticola on grapes
tank mix was obtained from technical materials of BP-4 and iprovalicarb.

[2] = system: Plasmopara viticola on grapes; assay: Fungicidal efficacy (2 day curative) on grapes, greenhouse; format: in vivo; conditions: single compound
Protocol: as §1, §2, §3, §4, §5, §6, §7, §8
Fungicidal efficacy of the mixture of BP-4+iprovalicarb (2 day curative) against Plasmopara viticola on grapes
The tank mix was obtained from technical materials of BP-4 and iprovalicarb.

Compound: COc1cc(C)c(C(=O)c2c(OC)ccc(Br)c2C)c(OC)c1OC [BP-4, 5-bromo-2′,6-dimethyl-2,4′,5′,6′-tetramethoxybenzophenone]
- Observed Efficacy ([1]; dose rate 0.037 ppm): 0%
- Observed Efficacy ([1]; dose rate 0.11 ppm): 0%
- Observed Efficacy ([1]; dose rate 0.33 ppm): 0%
- Observed Efficacy ([1]; dose rate 1 ppm): 0%
- Observed Efficacy ([1]; dose rate 3 ppm): 1%
- Observed Efficacy ([1]; dose rate 9 ppm): 4%
- Observed Efficacy ([1]; dose rate 27 ppm): 6%
- Observed Efficacy ([2]; dose rate 0.037 ppm): 0%
- Observed Efficacy ([2]; dose rate 0.11 ppm): 0%
- Observed Efficacy ([2]; dose rate 0.33 ppm): 0%
- Observed Efficacy ([2]; dose rate 1 ppm): 0%
- Observed Efficacy ([2]; dose rate 3 ppm): 0%
- Observed Efficacy ([2]; dose rate 9 ppm): 0%
- Observed Efficacy ([2]; dose rate 27 ppm): 2%

Compound: Cc1ccc(C(C)NC(=O)C(NC(=O)OC(C)C)C(C)C)cc1 (stereo not drawn) [iprovalicarb, [2-methyl-1-[1-(4-methylphenyl)-ethylaminocarbonyl]-propyl]-carbamic acid isopropyl ester, reference compound]
- Observed Efficacy ([1]; dose rate 0.11 ppm): 0%
- Observed Efficacy ([1]; dose rate 0.33 ppm): 3%
- Observed Efficacy ([1]; dose rate 1 ppm): 11%
- Observed Efficacy ([1]; dose rate 3 ppm): 55%
- Observed Efficacy ([1]; dose rate 9 ppm): 90%
- Observed Efficacy ([2]; dose rate 0.11 ppm): 0%
- Observed Efficacy ([2]; dose rate 0.33 ppm): 2%
- Observed Efficacy ([2]; dose rate 1 ppm): 11%
- Observed Efficacy ([2]; dose rate 3 ppm): 63%
- Observed Efficacy ([2]; dose rate 9 ppm): 91%
